Data taken from article PMC4850295, “Using a Genetically Encoded Sensor to Identify Inhibitors of Toxoplasma gondii Ca^2+ Signaling” (The Journal of Biological Chemistry, 2016).
pIC50: −log10 of the molar value.

Columns and labels:
[1] = molecular target: T1, recombinant T. gondii PKG (cGMP-dependent protein kinase; protein kinase G) (Toxoplasma gondii, UniProt Q8MMZ7); assay: in vitro kinase assay (CycLex PKG assay kit); format: biochemical; details: 6.76 nM recombinant PKG
[2] = molecular target: T1, recombinant T. gondii PKG (cGMP-dependent protein kinase; protein kinase G); assay: in vitro kinase assay (CycLex PKG assay kit); format: biochemical
[3] = test system: T2, GCaMP5-expressing T. gondii; parameters: species or system GCaMP5-expressing Toxoplasma gondii, extracellular; GCaMP5 fluorescence (cytosolic Ca2+) after 100 uM zaprinast in compound-pretreated extracellular parasites, background-subtracted, relative to zaprinast alone; details: 100 uM zaprinast stimulation; 10 min pretreatment; mean of two replicates; 0.23 h
T2 construct: whole extracellular parasites expressing GCaMP5 Ca2+ sensor
Outline: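 Extracellular GCaMP5-expressing parasites in Ringer's solution were pretreated with compounds (single 10 μM dose, two biological replicates) for 10 min, then stimulated with 100 μM zaprinast at 37 °C for 4 min. Fluorescence read at 485/525 nm, basal subtracted, expressed as fold change relative to zaprinast-only parasites.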

T1 sequence (Q8MMZ7 whole entry): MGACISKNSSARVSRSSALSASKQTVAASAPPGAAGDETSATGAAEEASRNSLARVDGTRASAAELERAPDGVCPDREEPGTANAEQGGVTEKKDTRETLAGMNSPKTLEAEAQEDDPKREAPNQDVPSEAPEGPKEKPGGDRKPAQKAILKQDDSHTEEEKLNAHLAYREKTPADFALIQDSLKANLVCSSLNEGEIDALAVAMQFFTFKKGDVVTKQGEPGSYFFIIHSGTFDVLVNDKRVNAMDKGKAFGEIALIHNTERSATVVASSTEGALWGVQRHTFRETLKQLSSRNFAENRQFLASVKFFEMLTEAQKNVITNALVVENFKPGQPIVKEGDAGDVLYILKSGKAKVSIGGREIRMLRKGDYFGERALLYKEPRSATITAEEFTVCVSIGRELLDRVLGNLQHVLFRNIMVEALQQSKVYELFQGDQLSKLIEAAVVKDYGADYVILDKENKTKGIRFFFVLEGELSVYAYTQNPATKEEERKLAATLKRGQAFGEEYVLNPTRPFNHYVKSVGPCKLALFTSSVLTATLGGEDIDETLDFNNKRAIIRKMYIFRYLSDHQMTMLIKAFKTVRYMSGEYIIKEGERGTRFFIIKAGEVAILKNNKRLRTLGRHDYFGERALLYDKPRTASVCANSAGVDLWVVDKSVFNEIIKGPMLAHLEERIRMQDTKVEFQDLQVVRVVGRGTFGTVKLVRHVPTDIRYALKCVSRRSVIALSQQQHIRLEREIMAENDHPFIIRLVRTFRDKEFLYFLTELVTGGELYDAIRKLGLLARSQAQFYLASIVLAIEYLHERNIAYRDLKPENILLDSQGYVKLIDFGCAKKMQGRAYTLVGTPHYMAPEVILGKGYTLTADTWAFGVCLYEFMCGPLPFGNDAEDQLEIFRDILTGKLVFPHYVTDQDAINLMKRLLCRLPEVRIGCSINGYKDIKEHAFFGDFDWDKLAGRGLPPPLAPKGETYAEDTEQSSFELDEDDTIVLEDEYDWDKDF

SMILES	activity versus inhibitor concentration [1]	pIC50 [2]	fold change in fluorescence relative to zaprinast alone [3]
CN(C)Cc1ccn2c(-c3ccnc(N)n3)c(-c3ccc(F)cc3)nc2c1 [Cpd2, Compound 2]	presence of increasing concentrations of Inh1, Inh2, or the PKG inhibitor Cpd2	–	–
Fc1ccc(-c2nn3ncccc3c2-c2ccnc(Nc3ccc4c(c3)OCCO4)n2)cc1 [Inh1]	–	6.24	-0.1251
Nc1nc(-c2ccc3c(c2)C(=Cc2cc(Br)c(O)c(Br)c2)C(=O)N3)cs1 [Inh2]	–	6.17	0.1475
Fc1ccc(-c2c(-c3ccccn3)nc3n2CCS3)cc1 [SKF-104365]	–	–	0.9062
COc1ccc(-c2nc3n(c2-c2ccncc2)CCC3)cc1 [SKF-104493-B2]	–	–	0.9045
CSc1ccc(-c2nc3n(c2-c2ccncc2)CCC3)cc1 [SKF-105561]	–	–	0.9692
CS(=O)(=O)c1ccc(-c2nc3n(c2-c2ccncc2)CCC3)cc1 [SKF-105942]	–	–	0.9941
CCSc1ccc(-c2nc3n(c2-c2ccncc2)CCC3)cc1 [SKF-106164-A2]	–	–	1.019
